Source: patent US20140004182A1, “METHODS FOR THE TREATMENT OF SARCOIDOSIS” (priority 2009, published 2014)

Assays:
[1] = test system: sarcoidosis patients with chronic cutaneous lesions despite systemic therapy; assay: Open label clinical study, Sarcoidosis Activity and Severity Index (SASI); type: in vivo, human; conditions: for SASI induration score, median (range): 43 areas with induration, baseline median 2 (0-4), p<0.005, scale 0 to 4
Experimental: An open label study of sarcoidosis patients with chronic cutaneous lesions despite systemic therapy was performed to determine the safety and efficacy of (+)-2-[1-(3-ethoxy-4-methoxyphenyl)-2-methanesulfonylethyl]-4-acetylaminoisoindolin-1,3-dione therapy. Patients were on a stable treatment regimen (corticosteroids, methotrexate (max 10 mg/week), azathioprine, hydroxychloroquine, cyclophosphamide, minocycline, doxycycline, chloroquine) for at least three months prior to study entry. Patients were assessed by a previously validated scoring system for cutaneous sarcoidosis: Sarcoidosis Activity and Severity Index (SASI). Individual scores were made for erythema, induration, and desquamation on a scale of 0 to 4. For an individual area of the body, the percentage of involvement for sarcoidosis lesions was scored on a scale from 0 to 7. After establishing a baseline SASI score, patients began treatment with (+)-2-[1-(3-ethoxy-4-methoxyphenyl)-2-methanesulfonylethyl]-4-acetylaminoisoindolin-1,3-dione 20 mg twice a day over the next 12 weeks. A SASI score was determined by the same investigator at baseline and weeks 4 and 12 of treatment.
Thirteen patients completed 16 weeks of study, including 12 weeks of active drug therapy. […] Among the 13 patients, there were 59 areas with one or more positive SASI feature during treatment. Among the 43 areas with induration, there was a significant drop in the SASI score from baseline (median 2 (0-4)) after 4 weeks (median 1 (0-3), p<0.005) and 12 weeks (median 1 (0-3), p<0.005) therapy.

[2] = test system: Phosphodiesterase 4 enzyme purified from U937 human monocytic cells; assay: Inhibition of PDE4 (phosphodiesterase reaction with [3H]-cAMP); type: biochemical; conditions: 1 μM cAMP plus 10 nM [3H]-cAMP, 45 min at 30° C., pH 7.5
Experimental: Phosphodiesterase 4 enzyme was purified from U937 human monocytic cells by gel filtration chromatography, and phosphodiesterase reactions were carried out as previously described. See, e.g., Muller et al., Bioorg. Med. Chem. Lett., 1998, 8(19): 2669-2674. Briefly, reactions were carried out in 96-well deep-well plates in 50 mM Tris HCl pH 7.5, 5 mM MgCl2, 1 μM cyclic adenosine monophosphate (cAMP), plus 10 nM [^3H]-cAMP for 45 min at 30° C. The reactions were terminated by boiling, treated with 1 mg/ml snake venom, and separated using AG-1X8 ion exchange resin (BioRad). Reactions consumed less than 15% of available substrate.

CCOc1cc([C@@H](CS(C)(=O)=O)N2C(=O)c3cccc(NC(C)=O)c3C2=O)ccc1OC [(+)-2-[1-(3-ethoxy-4-methoxyphenyl)-2-methanesulfonylethyl]-4-acetylaminoisoindolin-1,3-dione]
change in SASI area of involvement during therapy ([1]; 20 mg twice a day, 12 weeks): no significant change
change in SASI desquamation during therapy ([1]; 20 mg twice a day, 12 weeks): no significant change
change in SASI erythema during therapy ([1]; 20 mg twice a day, 12 weeks): no significant change
tolerability ([1]; 20 mg twice a day, 12 weeks, 13 patients): well tolerated
discontinuation of drug treatment ([1]; 13 patients, 12 weeks of active drug therapy): No patient discontinued
SASI induration score, median (range) ([1]; after 4 weeks therapy, 20 mg twice a day): 1 (0-3)
SASI induration score, median (range) ([1]; after 12 weeks therapy, 20 mg twice a day): 1 (0-3)
patients with dose reduced by 50% (one for nausea, the other for feeling jittery) ([1]; of 13 patients, continued on the reduced dose): two
improvement in skin induration ([1]; within 4 weeks of institution of therapy): significant improvement
IC50 [2]: 73.5 nM
